Source: ChEMBL document CHEMBL1201862, “PubChem BioAssay data set” (2004)
Calls of active or inactive are those of the source.

Tests used:
[1] = cells; assay type: functional
[2] = system: HEK293; assay: HEK cell cytotoxicity by LDH release, dose response, cytotoxicity control for IDE activator project, fluorescence, HEK cells (AID 588440); assay type: functional, cell-based; conditions: Homo sapiens;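 further: cytotoxicity by LDH release measuring loss of membrane integrity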
[3] = target: T1, Heat shock factor protein 1 (Mus musculus, UniProt P38532); assay: HSF1 potentiators in luciferase reporter cells, confirmation, cell-based, NIH3T3, luminescence, dose retest (AID 435004); assay type: functional;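 further: stress induced by proteasome inhibitor MG132 added 30 min after compound; luciferase reporter driven by HSF1 response element in NIH3T3 cells; actives raise luminescence as potentiators of the MG132 stress response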
T1 sequence (P38532 whole entry): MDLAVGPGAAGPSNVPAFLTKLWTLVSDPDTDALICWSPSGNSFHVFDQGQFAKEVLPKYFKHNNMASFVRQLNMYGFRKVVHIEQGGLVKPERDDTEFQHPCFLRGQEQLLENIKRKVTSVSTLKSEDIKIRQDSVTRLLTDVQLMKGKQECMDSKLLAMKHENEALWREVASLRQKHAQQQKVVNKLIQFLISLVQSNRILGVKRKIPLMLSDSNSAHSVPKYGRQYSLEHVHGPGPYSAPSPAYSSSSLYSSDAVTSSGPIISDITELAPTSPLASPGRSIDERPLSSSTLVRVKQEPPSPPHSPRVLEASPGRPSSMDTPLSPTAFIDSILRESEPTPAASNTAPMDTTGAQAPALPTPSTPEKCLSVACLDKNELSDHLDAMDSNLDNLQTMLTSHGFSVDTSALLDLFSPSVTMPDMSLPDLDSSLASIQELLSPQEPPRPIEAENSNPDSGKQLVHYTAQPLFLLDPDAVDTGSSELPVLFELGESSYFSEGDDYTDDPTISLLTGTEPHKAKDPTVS

[4] = target: Nonstructural protein 1 (Influenza A virus, UniProt Q194T2); assay type: functional, Influenza A virus (A/California/07/2009(H1N1))
Sequence of Nonstructural protein 1 (Q194T2 whole entry): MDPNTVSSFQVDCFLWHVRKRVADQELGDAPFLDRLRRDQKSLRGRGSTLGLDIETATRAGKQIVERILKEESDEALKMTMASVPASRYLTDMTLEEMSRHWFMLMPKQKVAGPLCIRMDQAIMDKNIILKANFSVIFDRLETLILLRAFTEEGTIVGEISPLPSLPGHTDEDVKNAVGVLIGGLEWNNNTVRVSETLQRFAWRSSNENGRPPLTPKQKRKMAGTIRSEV

[5] = target: T2, Ubiquitin-conjugating enzyme E2 N (Homo sapiens, UniProt P61088); assay type: functional;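 further: Dose-response confirmation in a TR-FRET assay detecting UBC13-driven polyubiquitin chain formation, inhibition measured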
T2 sequence (P61088 whole entry): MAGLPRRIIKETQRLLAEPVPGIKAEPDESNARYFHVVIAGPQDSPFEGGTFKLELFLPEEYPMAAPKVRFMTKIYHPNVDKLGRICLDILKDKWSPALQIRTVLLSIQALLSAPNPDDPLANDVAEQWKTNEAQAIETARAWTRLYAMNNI

[6] = target: SUMO-activating enzyme (Homo sapiens, UniProt Q9UBT2); assay: inhibitors of in vitro SUMOylation cascade, primary screen, biochemical, HTRF, uHTS (AID 2006); assay type: protein-complex assay
Sequence of SUMO-activating enzyme (Q9UBE0 whole entry): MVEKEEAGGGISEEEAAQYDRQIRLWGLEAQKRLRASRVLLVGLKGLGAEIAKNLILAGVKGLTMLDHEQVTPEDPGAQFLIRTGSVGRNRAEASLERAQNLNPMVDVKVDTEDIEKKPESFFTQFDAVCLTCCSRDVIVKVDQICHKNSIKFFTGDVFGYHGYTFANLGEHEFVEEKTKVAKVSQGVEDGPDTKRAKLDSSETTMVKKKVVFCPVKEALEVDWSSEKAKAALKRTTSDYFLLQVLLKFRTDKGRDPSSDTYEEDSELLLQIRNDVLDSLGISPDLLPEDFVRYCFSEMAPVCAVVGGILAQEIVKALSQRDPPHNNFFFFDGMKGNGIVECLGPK
Sequence of SUMO-activating enzyme (Q9UBT2 whole entry): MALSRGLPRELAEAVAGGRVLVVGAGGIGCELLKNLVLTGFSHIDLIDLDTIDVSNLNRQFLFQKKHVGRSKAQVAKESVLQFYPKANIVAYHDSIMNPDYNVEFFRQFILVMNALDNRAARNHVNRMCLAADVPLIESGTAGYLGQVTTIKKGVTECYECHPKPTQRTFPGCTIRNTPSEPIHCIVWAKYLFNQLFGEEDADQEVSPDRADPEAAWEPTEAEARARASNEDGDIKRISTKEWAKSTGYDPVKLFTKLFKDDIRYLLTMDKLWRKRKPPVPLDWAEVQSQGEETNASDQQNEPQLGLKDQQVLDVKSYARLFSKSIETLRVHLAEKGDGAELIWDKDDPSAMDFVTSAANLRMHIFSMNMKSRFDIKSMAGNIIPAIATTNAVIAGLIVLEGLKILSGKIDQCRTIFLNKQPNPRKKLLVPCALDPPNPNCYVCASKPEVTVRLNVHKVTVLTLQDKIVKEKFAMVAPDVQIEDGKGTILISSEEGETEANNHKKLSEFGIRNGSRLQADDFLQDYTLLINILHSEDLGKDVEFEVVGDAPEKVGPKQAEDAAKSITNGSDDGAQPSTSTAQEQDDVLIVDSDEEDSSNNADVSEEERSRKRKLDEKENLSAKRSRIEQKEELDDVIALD

[7] = enhancers of respiration in Yfh1-depleted yeast, dose response, Friedreich's ataxia, plus single-dose screen (AID 1465); assay type: functional;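 further: yeast depleted of Yfh1p frataxin homolog grown on glycerol needing respiration; WST-1 tetrazolium dye reduction as measure of cellular dehydrogenase metabolic activity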
[8] = inhibitors of firefly luciferase expression or activity, dose response, H4 neuroglioma cells, luminescence (AID 1990); assay type: functional, cell-based
[9] = inhibitors of SNCA 5'UTR-driven reporter translation, confirmation, H4 neuroglioma cells, luminescence (AID 1988); assay type: functional, cell-based
[10] = system: BJ; assay: cytotoxicity toward Ras-transformed BJeLR fibroblasts, dose response, cell-based, alamar blue fluorescence, cherrypicked samples (AID 2631); assay type: functional; conditions: Homo sapiens;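 further: confirmatory dose-response assay in RAS-dependent BJ fibroblasts engineered with TERT, LT and ST, with cytotoxicity read by fluorescence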
[11] = target: T1, Heat shock factor protein 1; assay: inhibition of MG132-induced HSE-luciferase signal, confirmation, cell-based, NIH3T3, luminescence, dose retest (AID 2382); assay type: functional;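 further: NIH3T3 fibroblasts with HSF1-driven luciferase reporter stressed by proteasome inhibitor MG132; luminescence from HSF1-driven luciferase expression after 8 hours of MG132 stress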
[12] = Luminescence Cell-Based Dose Response HTS to Identify Inhibitors of 5'UTR Stem-Loop Driven Prion Protein mRNA Translation in H4 Neuroglioblastoma Cells. [Related pubchem assays: 1827 (Project Summary), 1813 (Primary HTS)]; assay type: functional
[13] = target: Glucose-6-phosphate 1-dehydrogenase (Homo sapiens, UniProt P11413); assay: human G6PD enzyme inhibitors, dose response, selectivity assay for P. falciparum G6PD inhibitor project, biochemical, fluorescence (AID 504792); assay type: functional
Sequence of Glucose-6-phosphate 1-dehydrogenase (P11413 whole entry): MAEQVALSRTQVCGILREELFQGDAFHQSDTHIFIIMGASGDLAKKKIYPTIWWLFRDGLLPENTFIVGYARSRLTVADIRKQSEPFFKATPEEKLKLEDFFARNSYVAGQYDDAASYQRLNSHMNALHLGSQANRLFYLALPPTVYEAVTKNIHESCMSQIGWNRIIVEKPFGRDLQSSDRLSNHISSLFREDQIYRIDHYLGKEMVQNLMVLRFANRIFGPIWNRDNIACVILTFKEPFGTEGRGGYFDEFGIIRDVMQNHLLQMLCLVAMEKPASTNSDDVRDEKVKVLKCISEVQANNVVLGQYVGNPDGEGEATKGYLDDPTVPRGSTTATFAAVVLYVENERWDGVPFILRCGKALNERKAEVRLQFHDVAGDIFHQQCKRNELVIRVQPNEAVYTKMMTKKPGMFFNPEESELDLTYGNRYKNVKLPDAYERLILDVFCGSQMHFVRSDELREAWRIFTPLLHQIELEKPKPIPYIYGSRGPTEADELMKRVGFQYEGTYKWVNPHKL

[14] = target: Induced myeloid leukemia cell differentiation protein Mcl-1 (Homo sapiens, UniProt Q07820); assay type: functional
Sequence of Induced myeloid leukemia cell differentiation protein Mcl-1 (Q07820 whole entry): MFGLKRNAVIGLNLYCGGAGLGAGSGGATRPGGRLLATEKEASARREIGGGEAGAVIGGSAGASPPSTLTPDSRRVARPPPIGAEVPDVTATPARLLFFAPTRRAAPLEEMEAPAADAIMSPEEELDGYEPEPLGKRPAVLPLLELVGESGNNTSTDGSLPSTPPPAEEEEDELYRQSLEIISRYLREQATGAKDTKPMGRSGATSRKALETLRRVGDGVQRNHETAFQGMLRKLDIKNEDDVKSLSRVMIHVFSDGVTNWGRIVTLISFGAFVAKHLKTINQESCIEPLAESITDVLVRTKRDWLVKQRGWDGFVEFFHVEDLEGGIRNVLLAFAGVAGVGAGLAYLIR

[15] = inhibitors of intracellular T. cruzi replication, confirmation, NIH3T3 host cells, beta-gal luminescence (AID 2044); assay type: functional, cell-based;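 further: intracellular parasites grown in NIH/3T3 mouse fibroblasts as host cells; luminescent beta-galactosidase reporter signal from transgenic T. cruzi replicating inside host cells; inhibitors lower the luminescence signal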
[16] = Counterscreen for AddAB inhibitors: absorbance-based bacterial cell-based high throughput dose response assay for inhibitors of bacterial viability. [Related pubchem assays (depositor defined):AID435030, AID449728, AID449731, AID488942, AID488955, AID488956]; assay type: functional
[17] = cytotoxicity in HEK-293T cells, dose response, cytotoxicity control for TCR NF-kB inhibitor project, luminescence, T-cell screen hits (AID 489026); assay type: functional, cell-based;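 further: cells exposed to compound about 14 hours before the viability readout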
[18] = cells; assay type: functional, cell-based
[19] = system: BJ; assay: cells; assay type: functional, cell-based; conditions: Homo sapiens
[20] = system: HEK293; assay: SAR Analysis of small molecule inhibitors of T-cell specific antigen receptor-induced NF-kB activation in a HEK-293T cell line using a luminescence assay - Set 2. [Related pubchem assays (depositor defined):AID435003, AID435012, AID489026]; assay type: functional, cell-based; conditions: Homo sapiens
[21] = system: HEK293; assay: cytotoxicity in HEK293T NF-kB-Luc cells, SAR follow-up, cytotoxicity control for NF-kB activator project, cell-based, resazurin fluorescence (AID 493251); assay type: functional; conditions: Homo sapiens
[22] = target: Heat shock protein HSP 90-alpha (Homo sapiens, UniProt P07900); assay type: functional, organism-based

With `CCOC(=O)C1=C(c2ccccc2)N=C(N)NC1c1ccc(OCc2ccc(Cl)cc2)c(OC)c1` (configuration not stated) the IC50 [1] was 9.22 µM (active), the IC50 [2] was 13 µM (inactive) and the EC50 [3] was 25 µM (active). For the same compound, the IC50 [4] was 79.2 µM (active) and the IC50 [5] was > 20 µM (inactive).

In the case of `CCOC(=O)c1c(C)oc2c1c(/C=N/CCC(=O)O)c(O)c1ccccc12`, the IC50 [6] is reported as 28.8 µM (active).

In the case of `CCOC(=O)c1c(C)[nH]c2c1-c1ccccc1C(=O)C2=O`, the EC50 [7] is reported as > 100 µM (active), the EC50 [8] is reported as 3.02 µM (active) and the EC50 [9] is reported as 0.254 µM (active). For the same compound, the EC50 [10] was 0.554 µM (inconclusive), the EC50 [11] was 1.57 µM (active) and the EC50 [12] was 1.35 µM (active).

In the case of `COc1ccc2c(c1)CCC(/C=N/c1ccc3c(c1)OCO3)=C2O`, the IC50 [13] is reported as > 80 µM (inactive) and the IC50 [14] is reported as 16.7 µM (not active).

For `CC(=O)NC(c1ccc2ccccc2c1)c1ccc2cccnc2c1O` (configuration not stated), the EC50 [15] was 0.306 µM (active), the IC50 [16] was > 118 µM (inactive) and the IC50 [17] was > 80 µM (inactive). For the same compound, the EC50 [18] was 7.14 µM (active), the EC50 [19] was 6.35 µM (active) and the IC50 [20] was 1.88 µM (active). The IC50 [21] was 21.5 µM (inactive) and the AC50 [22] was 1.98 µM (active).
